Values quoted from earlier work as cited in patent publication US20160244831A9, “Genetic Alterations Associated with Autism and the Autistic Phenotype and Methods of Use Thereof for the Diagnosis and Treatment of Autism” (The Children's Hospital of Philadelphia, priority 2011, published 2016).

How the values were obtained:
[1] = individuals exposed between days 24-28 post-fertilization
[2] = at levels that are highly teratogenic in humans

rate of ASD [1] [%]	SMILES	expression of RANBP1 mRNA (RANBP1 mRNA)	teratogenicity in animals [2]
–	CCCC(CCC)C(=O)O [Valproate, Valproic acid]	decreased expression	–
27	O=C1CCC(N2C(=O)c3ccccc3C2=O)C(=O)N1 (stereo not shown) [Thalidomide]	decreased expression	lack of teratogenicity
